Laboratory results published in patent US20080269214A1, “Pyrrole Derivatives as Dna Gyrase and Topoisomerase Inhibitors” (ASTRAZENECA AB, priority 2005, published 2008).
Values after ≈ are worked out from the molar mass of the structure shown.

Key:
Assay in all cases: Bacterial susceptibility testing in liquid media (MIC)
[1] = tested on: HIN446; type: cell-based; settings: strain HIN446; no unit printed in table (b320 text uses μg/ml); growth reduced by 80% or more, 24 hrs
Method: (§1) Compounds were tested for antimicrobial activity by susceptibility testing in liquid media. Compounds were dissolved in dimethylsulfoxide and tested in 10 doubling dilutions in the susceptibility assays. The organisms used in the assay were grown overnight on suitable agar media and then suspended in a liquid medium appropriate for the growth of the organism. The suspension was a 0.5 McFarland and a further 1 in 10 dilution was made into the same liquid medium to prepare the final organism suspension in 100 µL. Plates were incubated under appropriate conditions at 37 degrees C. for 24 hrs prior to reading. The Minimum Inhibitory Concentration was determined as the lowest drug concentration able to reduce growth by 80% or more.

[2] = tested on: SAU516; type: cell-based; settings: strain SAU516; no unit printed in table (b320 text uses μg/ml); growth reduced by 80% or more, 24 hrs
Method: as §1

[3] = tested on: SPN548; type: cell-based, Streptococcus pneumoniae; settings: strain SPN548; no unit printed in table (b320 text uses μg/ml); growth reduced by 80% or more, 24 hrs
Method: as §1

[4] = tested on: Streptococcus pneumoniae; type: cell-based; settings: lowest concentration reducing growth by 80% or more, 37 degrees C., 24 hrs, read-out: MIC against Streptococcus pneumoniae
Method: as §1

Row | SMILES | MIC HIN446 [1] | MIC SAU516 [2] | MIC SPN548 [3] | MIC [4] [µg/mL]
1 | Cc1[nH]c(C(=O)Nc2ccc(-c3cncc(C(=O)O)c3)cc2)c(Cl)c1Cl [Example 23, 5-[4-[[(3,4-Dichloro-5-methyl-1H-pyrrol-2-yl)carbonyl]amino]phenyl]-3-pyridinecarboxylic acid] | 2 | 4 | 0.13 | 
2 | CNc1ncc(-c2ccc(NC(=O)c3[nH]c(C)c(Cl)c3Cl)cc2)cc1C(=O)O [Example 25, 5-(4-{[(3,4-Dichloro-5-methyl-1H-pyrrol-2-yl)carbonyl]amino}phenyl)-2-(methylamino)nicotinic acid] | 4 | 2 | 1 | 
3 | Cc1[nH]c(C(=O)Nc2ccc(-c3cnc(Cl)c(C(=O)O)c3)cc2)c(Cl)c1Cl [Example 26, 2-Chloro-5-(4-{[(3,4-dichloro-5-methyl-1H-pyrrol-2-yl)carbonyl]amino}phenyl)nicotinic acid] | 8 | 32 | 1 | 
4 | Cc1[nH]c(C(=O)Nc2ccc(-c3cc(C(=O)O)ccn3)cc2)c(Cl)c1Cl [Example 27, 2-(4-{[(3,4-Dichloro-5-methyl-1H-pyrrol-2-yl)carbonyl]amino}phenyl)isonicotinic acid] | 2 | 2 | 0.13 | 
5 | COc1ncc(-c2ccc(NC(=O)c3[nH]c(C)c(Cl)c3Cl)cc2)cc1C(=O)O [Example 30, 5-(4-{[(3,4-Dichloro-5-methyl-1H-pyrrol-2-yl)carbonyl]amino}phenyl)-2-methoxynicotinic acid] |  |  |  | 1 (≈ 2.38 µM)
6 | Cc1[nH]c(C(=O)Nc2ccc(-c3ccc(C(=O)O)o3)cc2)c(Cl)c1Cl [Example 36, 5-(4-{[(3,4-Dichloro-5-methyl-1H-pyrrol-2-yl)carbonyl]amino}phenyl)-2-furoic acid] | 1 | 2 | 0.25 | 
